Test results taken from ChEMBL document CHEMBL5500393, “Discovery and Optimization of Novel SaFabI Inhibitors as Specific Therapeutic Agents for MRSA Infection” (J Med Chem, 2024).
Values after ≈ are worked out from the molar mass of the structure shown. Active and inactive are the calls of the source. The calls are words filed in the database; no cut-off is given here.

What was measured:
[1] = biological target: T1, Enoyl-[acyl-carrier-protein] reductase [NADPH] FabI (Staphylococcus aureus) (UniProt Q6GI75); assay: Inhibition of N-terminal his 6 tagged Staphylococcus aureus Fabi (1 to […] residues) expressed in Escherichia coli BL21 at 10 uM incubated for 30 mins in presence of NADPH by fluorescence based microplate reader analysis relative to control
T1 sequence (whole entry): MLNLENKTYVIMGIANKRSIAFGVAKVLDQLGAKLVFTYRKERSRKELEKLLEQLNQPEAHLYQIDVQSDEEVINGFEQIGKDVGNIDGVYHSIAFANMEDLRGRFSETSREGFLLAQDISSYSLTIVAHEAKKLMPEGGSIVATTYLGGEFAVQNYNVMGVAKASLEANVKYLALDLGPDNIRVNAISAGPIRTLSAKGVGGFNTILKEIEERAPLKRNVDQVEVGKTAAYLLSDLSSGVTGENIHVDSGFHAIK

Staphylococcus aureus [2] = assay: Antimicrobial activity against methicillin-susceptible Staphylococcus aureus ATCC25923 measured after 24 hrs by CLSI protocol based microdilution method; assay type: functional
Enterococcus faecium = assay: Antimicrobial activity against Enterococcus faecium ATCC19434 measured after 24 hrs by CLSI protocol based microdilution method; assay type: functional
Candida albicans = assay: Antimicrobial activity against Candida albicans SC5314 measured after 48 hrs by CLSI protocol based microdilution method; assay type: functional
HepG2 [3] = assay: Cytotoxicity against human HepG2 cells assessed as survival rate at 400 uM measured after 48 hrs by CCK-8 method relative to control; assay type: functional; conditions: read-out: Survival
HepG2 [4] = assay: Cytotoxicity against human HepG2 cells assessed as survival rate at 800 uM measured after 48 hrs by CCK-8 method relative to control; assay type: functional; conditions: read-out: Survival
[5] = Hemolytic activity in sheep erythrocytes assessed as hemolysis at 256 ug/ml incubated for 1 hr by microplate reader based analysis relative to control; assay type: toxicity, cell-based, Ovis aries, Erythrocyte; conditions: at 256 µg/mL, read-out: Activity
[6] = Selectivity index, ratio of HC50 for sheep erythrocytes to MIC for Staphylococcus aureus; assay type: toxicity; conditions: read-out: Selectivity Index
Staphylococcus aureus [7] = assay: Bactericidal activity against […] Staphylococcus aureus ATCC33591 assessed as log reduction in bacterial count at 2 times MIC measured within 8 to 12 hrs by time-kill assay; assay type: functional; conditions: time 8-12 hrs
Cell membrane [8] = assay: Induction of cell membrane permeability in methicillin-resistant Staphylococcus aureus ATCC33591 assessed as increase in fluorescence measured after 30 mins by 7-AAD staining based analysis; assay type: cell membranes
Cell membrane [9] = assay: Induction of cell membrane permeability in methicillin-resistant Staphylococcus aureus ATCC33591 assessed as fold increase in fluorescence intensity at 0.5 times MIC measured after 30 mins by 7-AAD staining based analysis; assay type: cell membranes
Cell membrane [10] = assay: Induction of cell membrane permeability in methicillin-resistant Staphylococcus aureus ATCC33591 assessed as fold increase in fluorescence intensity at 1 times MIC measured after 30 mins by 7-AAD staining based analysis; assay type: cell membranes
Cell membrane [11] = assay: Induction of cell membrane permeability in methicillin-resistant Staphylococcus aureus ATCC33591 assessed as fold increase in fluorescence intensity at 0.25 times MIC measured after 30 mins by Annexin V-FITC staining based analysis; assay type: cell membranes
Cell membrane [12] = assay: Induction of cell membrane permeability in methicillin-resistant Staphylococcus aureus ATCC33591 assessed as fold increase in fluorescence intensity at 1 times MIC measured after 30 mins by Annexin V-FITC staining based analysis; assay type: cell membranes
Cell membrane [13] = assay: Induction of cell membrane damage in methicillin-resistant Staphylococcus aureus ATCC33591 assessed as increase in red fluorescence at 1 times MIC measured after 30 mins by […] analysis; assay type: cell membranes
Cell membrane [14] = assay: Induction of cell membrane damage in methicillin-resistant Staphylococcus aureus ATCC33591 assessed as broken cell surface at 1 times MIC measured after 30 mins by TEM analysis; assay type: cell membranes
Cell membrane [15] = assay: Induction of cell membrane damage in methicillin-resistant Staphylococcus aureus ATCC33591 assessed as outflow of cytoplasmic content at 1 times MIC measured after 30 mins by TEM analysis; assay type: cell membranes
Staphylococcus aureus [16] = assay: Antimicrobial activity against Staphylococcus aureus RN4220 harbouring pCM-sfgfp measured after 24 hrs by CLSI protocol based microdilution method; assay type: functional
Staphylococcus aureus [17] = assay: Antimicrobial activity against Staphylococcus aureus RN4220 harbouring pCM-sfgfp::fabi (promoter-sarA) measured after 24 hrs by CLSI protocol based microdilution method; assay type: functional
[18] = biological target: T1, Enoyl-[acyl-carrier-protein] reductase [NADPH] FabI (Staphylococcus aureus); assay: Binding affinity to N-terminal his 6 tagged Staphylococcus aureus Fabi (1 to […] residues) expressed in Escherichia coli BL21 assessed as increase in thermal stability at 10 ug/ml measured after 1 hr by […] assay; conditions: dose 10.0 µg/ml
[19] = Acute toxicity in female BALB/c mouse assessed as animal death at 800 mg/kg, po measured after 14 days; assay type: organism-based; conditions: in vivo, 336 h, time 14 day
[20] = Acute toxicity in female BALB/c mouse assessed as effect on body weight at 800 mg/kg, po measured after 14 days; assay type: organism-based; conditions: in vivo, 336 h, time 14 day
[21] = Acute toxicity in female BALB/c mouse assessed as effect on TP level in serum at 800 mg/kg, po measured after 14 days; assay type: organism-based; conditions: in vivo, 336 h, time 14 day
[22] = Acute toxicity in female BALB/c mouse assessed as effect on CREA level in serum at 800 mg/kg, po measured after 14 days; assay type: organism-based; conditions: in vivo, 336 h, time 14 day
[23] = Acute toxicity in female BALB/c mouse assessed as effect on heart at 800 mg/kg, po measured after 14 days by H and E staining based analysis; assay type: organism-based; conditions: in vivo, 336 h, time 14 day
[24] = Acute toxicity in female BALB/c mouse assessed as effect on liver at 800 mg/kg, po measured after 14 days by H and E staining based analysis; assay type: organism-based; conditions: in vivo, 336 h, time 14 day
[25] = Acute toxicity in female BALB/c mouse assessed as effect on spleen at 800 mg/kg, po measured after 14 days by H and E staining based analysis; assay type: organism-based; conditions: in vivo, 336 h, time 14 day
[26] = Aqueous solubility of the compound measured after 24 hrs by HPLC analysis; assay type: physicochemical
[27] = Metabolic stability in mouse liver microsomes assessed as half life at 1 uM measured upto 120 mins in presence of NADPH by LC-MS analysis; assay type: ADME, Microsome
[28] = Metabolic stability in mouse liver microsomes assessed as intrinsic clearance at 1 uM measured upto 120 mins in presence of NADPH by LC-MS analysis; assay type: ADME, Microsome; conditions: read-out: CLH
[29] = Cmax in female Sprague-Dawley rat at 5 mg/kg, iv measured upto 24 hrs by LC-MS analysis; assay type: ADME, organism-based; conditions: in vivo
[30] = Clearance in female Sprague-Dawley rat at 5 mg/kg, iv measured upto 24 hrs by LC-MS analysis; assay type: ADME, organism-based; conditions: in vivo
[31] = AUC (0 to t) in female Sprague-Dawley rat at 5 mg/kg, iv measured upto 24 hrs by LC-MS analysis; assay type: ADME, organism-based; conditions: in vivo
[32] = Cmax in female Sprague-Dawley rat at 20 mg/kg, po measured upto 24 hrs by LC-MS analysis; assay type: ADME, organism-based; conditions: in vivo
[33] = Half life in female Sprague-Dawley rat at 20 mg/kg, po measured upto 24 hrs by LC-MS analysis; assay type: ADME, organism-based; conditions: in vivo

SMILES: COc1c(Br)cccc1N1CC(c2nc3ccccc3n2C)CC1=O (stereo not given)
- inhibition [1]: 99.3%
- MIC (Staphylococcus aureus [2]): 2 µg/mL (≈ 5 µM)
- MIC (Enterococcus faecium): > 32 µg/mL
- MIC (Candida albicans): > 32 µg/mL
- viability at 400 µM (HepG2 [3]): > 70%
- viability at 800 µM (HepG2 [4]): > 65%
- hemolysis at 1 h, 256 ug/ml [5]: 8.1%
- selectivity ratio [6]: > 128
- log(activity) (Staphylococcus aureus [7]): 2.3
- Activity (Cell membrane [8]): Active
- fold change (FC) (Cell membrane [9]): 1.5
- fold change (FC) (Cell membrane [10]): 1.8
- fold change (FC) (Cell membrane [11]): 1.4
- fold change (FC) (Cell membrane [12]): 2.4
- Activity (Cell membrane [13]): Active
- Activity (Cell membrane [14]): Active
- Activity (Cell membrane [15]): Active
- MIC (Staphylococcus aureus [16]): 2 µg/mL (≈ 5 µM)
- MIC (Staphylococcus aureus [17]): > 32 µg/mL
- Activity [18]: Active
- Activity [19]: Non-Toxic
- Activity [20]: Non-Toxic
- Activity [21]: Non-Toxic
- Activity [22]: Non-Toxic
- Activity [23]: Non-Toxic
- Activity [24]: Non-Toxic
- Activity [25]: Non-Toxic
- solubility at 24 h [26]: 467 µg/mL (≈ 1170 µM)
- half-life at 1 µM [27]: 13.2 min
- CLint scaled at 1 µM [28]: 414 mL/min/kg
- Cmax [29]: 2.72 µg/mL
- clearance [30]: 36.7 mL/min/kg
- AUCt [31]: 2264.4 µg·h/L
- Cmax [32]: 1.27 µg/mL
- t1/2 [33]: 9.3 h

SMILES: Cc1c(Br)cccc1N1CC(c2nc3ccccc3n2C)CC1=O (stereo not given)
- inhibition [1]: 98.7%
- MIC (Staphylococcus aureus [2]): 1 µg/mL (≈ 2.6 µM)
- MIC (Enterococcus faecium): > 32 µg/mL
- MIC (Candida albicans): > 32 µg/mL
- viability at 400 µM (HepG2 [3]): > 70%
- viability at 800 µM (HepG2 [4]): > 75%
- hemolysis at 1 h, 256 ug/ml [5]: 9.9%
- selectivity ratio [6]: > 128
- log(activity) (Staphylococcus aureus [7]): 3.2
- Activity (Cell membrane [8]): Active
- fold change (FC) (Cell membrane [9]): 1.6
- fold change (FC) (Cell membrane [10]): 1.9
- fold change (FC) (Cell membrane [11]): 1.3
- fold change (FC) (Cell membrane [12]): 2.6
- Activity (Cell membrane [13]): Active
- Activity (Cell membrane [14]): Active
- Activity (Cell membrane [15]): Active
- MIC (Staphylococcus aureus [16]): 2 µg/mL (≈ 5.2 µM)
- MIC (Staphylococcus aureus [17]): > 32 µg/mL
- Activity [18]: Active
- Activity [19]: Non-Toxic
- Activity [20]: Non-Toxic
- Activity [21]: Non-Toxic
- Activity [22]: Non-Toxic
- Activity [23]: Non-Toxic
- Activity [24]: Non-Toxic
- Activity [25]: Non-Toxic
- solubility at 24 h [26]: 388 µg/mL (≈ 1010 µM)
- half-life at 1 µM [27]: 27.7 min
- CLint scaled at 1 µM [28]: 197 mL/min/kg
- Cmax [29]: 3.25 µg/mL
- clearance [30]: 26.7 mL/min/kg
- AUCt [31]: 3238.8 µg·h/L
- Cmax [32]: 1.52 µg/mL
- t1/2 [33]: 8.7 h
